Assay results as given in US20190169218A1, “AMPHIPATHIC COMPOUND HAVING NOVEL PENTA-SACCHARIDE HYDROPHILIC GROUP AND USE THEREOF” (Industry-University Cooperation Foundation Hanyang …, priority 2016, published 2019).

Columns and labels:
[1] = system: T4L-β2AR-Gs or β2AR-Gs complexes; assay: purification and stability of T4L-β2AR-Gs or β2AR-Gs complexes (analytical gel filtration, negative staining EM); design: species or system human
Experimental: The ability of PSE-C11 or TPS-E10L to purify and stabilize T4L-β2AR-Gs or β2AR-Gs complexes was measured using electron microscopy (EM) analysis.
Specifically, measurement of the ability of PSE-C11 for TPS-E10L to purify and stabilize T4L-β2AR-Gs or β2AR-Gs complexes was performed as follows. 100 μM T4L-β2AR solubilized in 0.1 wt % DDM was mixed with 120 μM Gs heterotrimers for 30 minutes. 0.5 units of apyrase (NEB) and 2 mM MgCl2 were added to the mixture, followed by a 1-hour incubation to form complexes. 1 wt % PSE-C11 or TPS-E10L was respectively added to the mixture to achieve a final concentration of 0.8%, and incubated for 30 minutes to allow DDM to be exchanged with PSE-C11 or TPS-E10L. […] Finally, proteins were eluted with a 0.05% (100×CMC) PSE-C11 or TPS-E10L buffer. Gel filtration was performed using a running buffer (20 mM HEPES (pH 7.5), 100 mM NaCl, 0.005% PSE-C11 or TPS-E10L, 1 μM BI, 100 μM TCEP) to purify T4L-β2AR-Gs complexes. To measure the stability of β2AR-Gs complexes present in PSE-C11 or TPS-E10L, analytical gel filtration was performed with running buffers of the same formulation at 12 hours, 1 day, 3 days, 7 days, and 15 days. After a 15 day-incubation, analytical gel filtration was performed using an amphiphilic compound pre-buffer having the same formulation as above without PSE-C11 or TPS-E10L.
In addition, negative staining EM analysis for T4L-β2AR-Gs or β2AR-Gs complexes present in PSE-C11 was performed as follows. Samples containing T4L-β2AR-Gs or β2AR-Gs were prepared to perform electron microscopy analysis using a conventional negative staining protocol (see Peisley, A. et al., G Protein-Coupled Receptors in Drug Discovery: Methods and Protocols, Methods in Molecular Biology, 1335, 29-38 (2015)), and imaging was performed by operating a Tecnai T12 electron microscope at 120 kV at room temperature. Images were recorded with a Gatan US4000 CCD camera at a 71,138×magnification with a defocus value of ˜[…].

[2] = system: T4L-β2AR-Gs or β2AR-Gs complexes; conditions: purified by DDM, 4° C., reported in the prior art; cited from earlier work
[3] = molecular target: T1, uric acid-xanthine/H+ symporter (UapA) (Emericella nidulans, UniProt Q07307, G411V); assay: thermal stability of UapA by CPM analysis; design: species or system Aspergillus nidulans; conditions: CMC+0.04 wt % and CMC+0.2 wt %, 40° C., 120 minutes
T1 construct: GFP; made in house; host or cells: Saccharomyces cerevisiae FGY217
Experimental: The ability of TPSs (TPS-As, TPS-Es and TPS-ELs) to stabilize the structure of uric acid-xanthine/H+ symporter (UapA) isolated from Aspergillus nidulans was measured. The structural stability of UapA was evaluated using a sulfhydryl-specific fluorophore, N-[4-(7-diethylamino-4-methyl-3-coumarinyl)phenyl]maleimide (CPM).
Specifically, UapAG411V1-11 (hereinafter, referred to as ‘UapA’) was expressed in a Saccharomyces cerevisiae FGY217 strain as a GFP fusion protein, and was isolated using a sample buffer (20 mM Tris (pH 7.5), 150 mM NaCl, 0.03% DDM, 1 mM xanthine). The transporter was concentrated to about 10 mg/mL using a 100 kDa molecular weight cut-off filter (Millipore). The transporter was diluted with a CMC+0.04 wt % or CMC+0.2 wt % buffer at a ratio of 1:150 in a Greiner 96-well plate containing one of TPS-As (TPS-A6, TPS-A7 or TPS-A8), TPS-Es (TPS-E6, TPS-E7 or TPS-E8), TPS-ELs (TPS-E8L, TPS-E9L, TPS-E10L or TPS-E11L), MNG-3 or DDM (control group). […] During incubation, fluorescence emission intensity was monitored using a microplate spectrophotometer set at excitation and emission wavelengths of 387 and 463 nm, respectively. The maximum value of fluorescence intensity was used to calculate the relative percentage of folded transporters during the incubation period. […]

T1 sequence (Q07307 12-574 G411V): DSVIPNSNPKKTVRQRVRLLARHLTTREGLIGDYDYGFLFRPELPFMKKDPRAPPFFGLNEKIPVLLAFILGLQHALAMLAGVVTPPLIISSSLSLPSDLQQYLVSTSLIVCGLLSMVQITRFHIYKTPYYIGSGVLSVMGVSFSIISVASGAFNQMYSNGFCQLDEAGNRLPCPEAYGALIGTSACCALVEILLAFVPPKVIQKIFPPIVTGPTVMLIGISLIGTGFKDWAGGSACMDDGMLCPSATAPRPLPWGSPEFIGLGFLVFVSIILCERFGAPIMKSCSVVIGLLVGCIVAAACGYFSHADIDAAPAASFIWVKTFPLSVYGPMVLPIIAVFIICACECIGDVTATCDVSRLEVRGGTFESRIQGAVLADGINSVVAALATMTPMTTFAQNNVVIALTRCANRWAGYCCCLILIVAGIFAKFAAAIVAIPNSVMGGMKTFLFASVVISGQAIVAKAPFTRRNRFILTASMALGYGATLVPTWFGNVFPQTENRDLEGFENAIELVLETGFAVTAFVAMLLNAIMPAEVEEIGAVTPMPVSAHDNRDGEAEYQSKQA

SMILES: CCCCCCCCCCCOCC(COCCCCCCCCCCC)O[C@@H]1OC(CO[C@@H]2OC(CO)[C@@H](O)C(O)C2O)[C@@H](O[C@@H]2OC(CO)[C@@H](O)C(O)C2O)C(O[C@@H]2OC(CO)[C@@H](O)C(O)C2O)C1O[C@@H]1OC(CO)[C@@H](O)C(O)C1O (stereo partly shown) [PSE-C11]
- stability of β2AR-Gs complexes (analytical gel filtration) ([1]; after incubation for 15 and 17 days): no separation of the complexes was observed at all
- stability of complexes ([1]; buffer without the amphipathic compound as eluent): completely stable

SMILES: CCCCCCCCCCCCO[C@@H]1O[C@H](CO)[C@@H](O[C@H]2O[C@H](CO)[C@@H](O)[C@H](O)[C@H]2O)[C@H](O)[C@H]1O [DDM, n-dodecyl-β-D-maltopyranoside, reference compound]
- stability of T4L-β2AR-Gs complexes [2]: complex separation was observed even after 2 days of incubation

SMILES: CCCCCCCCOCC(COCCCCCCCC)(COCCCCCCCC)CO[C@@H]1OC(CO[C@@H]2OC(CO)[C@@H](O)C(O)C2O)[C@@H](O[C@@H]2OC(CO)[C@@H](O)C(O)C2O)C(O[C@@H]2OC(CO)[C@@H](O)C(O)C2O)C1O[C@@H]1OC(CO)[C@@H](O)C(O)C1O (stereo partly shown) [TPS-E8]
- maintaining folding state of UapA (CPM) [3]: the most excellent among TPS-As/Es
